Data reported in US9662318B2, “Bitopic muscarinic agonists and antagonists and methods of synthesis and use thereof” (BARRY UNIVERSITY, INC., priority 2012, dated 2017).
Read-outs that look alike come from different tables or passages of the source.

How the values were obtained:
M5 muscarinic receptor [1] = molecular target: T1, M5 muscarinic receptor (Homo sapiens, UniProt P08912); experiment: biochemical; type: binding; conditions: competition with [^3H]QNB
T1 construct: host or cells: CHO (Chinese hamster ovary) cells, stably transfected
T1 sequence (P08912 1-532): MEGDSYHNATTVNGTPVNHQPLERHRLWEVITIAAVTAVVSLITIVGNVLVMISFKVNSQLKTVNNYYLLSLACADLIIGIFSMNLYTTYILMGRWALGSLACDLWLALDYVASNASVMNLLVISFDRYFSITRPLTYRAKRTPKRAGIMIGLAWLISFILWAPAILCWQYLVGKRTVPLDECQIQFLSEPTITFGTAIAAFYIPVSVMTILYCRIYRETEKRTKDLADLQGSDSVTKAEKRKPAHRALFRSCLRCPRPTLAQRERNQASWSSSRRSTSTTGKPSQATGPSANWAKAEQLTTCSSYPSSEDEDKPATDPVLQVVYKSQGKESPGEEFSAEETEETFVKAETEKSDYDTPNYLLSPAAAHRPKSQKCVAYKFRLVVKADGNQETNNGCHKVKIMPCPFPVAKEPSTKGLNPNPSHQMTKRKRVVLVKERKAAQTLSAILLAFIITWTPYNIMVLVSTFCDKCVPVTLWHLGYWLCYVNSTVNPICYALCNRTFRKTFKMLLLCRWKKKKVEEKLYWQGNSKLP

M3 muscarinic receptor [2] = molecular target: T2, M3 muscarinic receptor (Homo sapiens, UniProt P20309); experiment: biochemical; type: binding; conditions: competition with [^3H]QNB
T2 construct: host or cells: Chinese hamster ovary cells

M1 muscarinic receptor [3] = molecular target: T3, M1 muscarinic receptor (Homo sapiens, UniProt P11229); experiment: Competition with [3H]NMS (equilibrium binding, CHO membranes); conditions: for IC50: competition with [^3H]NMS
T3 sequence (P11229 1-460): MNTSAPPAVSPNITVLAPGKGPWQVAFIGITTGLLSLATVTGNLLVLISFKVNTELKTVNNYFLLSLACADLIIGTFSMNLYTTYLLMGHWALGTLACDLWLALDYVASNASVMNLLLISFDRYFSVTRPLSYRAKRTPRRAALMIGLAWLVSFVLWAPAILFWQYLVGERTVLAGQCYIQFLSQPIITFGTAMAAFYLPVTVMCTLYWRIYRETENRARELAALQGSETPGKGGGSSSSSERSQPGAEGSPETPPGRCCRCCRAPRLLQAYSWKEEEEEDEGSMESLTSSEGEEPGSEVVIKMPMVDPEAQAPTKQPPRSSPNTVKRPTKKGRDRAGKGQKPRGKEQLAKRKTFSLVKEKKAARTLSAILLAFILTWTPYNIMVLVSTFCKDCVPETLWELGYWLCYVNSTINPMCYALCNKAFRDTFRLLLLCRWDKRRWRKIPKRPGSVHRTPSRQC
Procedure: (§1) All radioligand binding experiments were optimized and carried out as described earlier. Briefly, membranes were incubated in 96-well plates at 30° C. in the incubation medium described. […] Dissociation was initiated by addition of atropine to final concentration of 5 Tested ligands in final concentration of 100 μM were added concurrently with atropine. Incubations were terminated by filtration through Whatman GF/C glass fiber filters (Whatman) using a Brandel cell harvester (Brandel, Gaithersburg, Md., USA). Filters were dried in vacuum for 1 h while heated at 80° C. and then solid scintillator Meltilex A was melted on filters (105° C., 90 s) using a hot plate. The filters were cooled and counted in Wallac Microbeta scintillation counter.
(§2) Inhibition constant KI was calculated as: […]

M3 muscarinic receptor [4] = molecular target: T2, M3 muscarinic receptor; experiment: as above; conditions: for IC50: competition with [^3H]NMS
Procedure: as §1, §2

M5 muscarinic receptor [5] = molecular target: T1, M5 muscarinic receptor; experiment: as above; conditions: for IC50: competition with [^3H]NMS
Procedure: as §1, §2

M4 muscarinic receptor = molecular target: T4, M4 muscarinic receptor (Homo sapiens, UniProt P08173); experiment: as above; conditions: for IC50: competition with [^3H]NMS
T4 construct: host or cells: Chinese hamster ovary cells
T4 sequence (P08173 1-479): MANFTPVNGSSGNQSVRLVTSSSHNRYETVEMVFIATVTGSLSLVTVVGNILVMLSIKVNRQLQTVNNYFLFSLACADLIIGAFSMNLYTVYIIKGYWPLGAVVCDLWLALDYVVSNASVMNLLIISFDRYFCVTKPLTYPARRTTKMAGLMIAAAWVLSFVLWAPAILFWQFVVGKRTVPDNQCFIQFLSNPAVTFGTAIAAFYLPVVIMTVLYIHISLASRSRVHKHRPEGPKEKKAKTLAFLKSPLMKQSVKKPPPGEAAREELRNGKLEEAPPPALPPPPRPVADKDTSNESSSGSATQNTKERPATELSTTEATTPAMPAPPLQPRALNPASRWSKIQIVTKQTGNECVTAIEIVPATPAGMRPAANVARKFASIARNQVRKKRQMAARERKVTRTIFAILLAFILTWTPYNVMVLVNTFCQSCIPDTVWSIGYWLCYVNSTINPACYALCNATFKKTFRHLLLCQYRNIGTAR
Procedure: as §1, §2

M3 muscarinic receptor [6] = molecular target: T2, M3 muscarinic receptor; experiment: Accumulation of inositol phosphates in CHO cells; type: cell-based; conditions: ligand 0.1 mM, no carbachol
Procedure: (§3) Chinese hamster ovary cells stably transfected with the genes of human variants of muscarinic receptors were purchased from Missouri S&T cDNA Resource Center (Rolla, Mo., USA). […] Cells were grown to confluency in 75 cm^2 flasks in Dulbecco's modified Eagle's medium supplemented with 10% fetal bovine serum and 2 million of cells were subcultured to 100 mm Petri dishes. Medium was supplemented with 5 mM butyrate for the last 24 hours of cultivation to increase receptor expression.
(§4) Inositolphosphates formation was determined in cells pre-labeled overnight by 0.5 μM [^3H]myo-inositol in 0.3 mL of DMEM (3 μCi/ml) at 37° C. […] Incubation was stopped by removal of incubation buffer and addition 0.2 mL 20% trichloracetic acid (TCA). After 1 h incubation at 4° C., 100 μL, of TCA extracts were taken for measurement. Rest of the TCA was removed, and TCA precipitates were washed with 200 μL TCA and dissolved in 200 μL of 1 M NaOH. After 1 h incubation at 4° C., 100 μL, of NaOH lysates were taken for measurement. Radioactivity in TCA extracts and NaOH lysates were determined by liquid scintillation counting. The rate of inositolphosphates accumulation was calculated as a percentage of the soluble (released) inositolphosphates from the total incorporated radioactivity (sum of radioactivity in NaOH lysates and TCA extracts).
(§5) EC50 values are expressed as negative logarithms and EMAX values as folds over basal, Table 7.

[7] = tested on: M1-M5 muscarinic receptors; experiment: Competition with [3H]NMS, statements over all subtypes; type: binding, human; conditions: competition experiments, all M1-M5
M1 muscarinic receptor [8] = molecular target: T3, M1 muscarinic receptor; experiment: Accumulation of inositol phosphates in CHO cells; type: cell-based; conditions: ligand 0.1 mM, no carbachol
Procedure: as §3, §4, §5

[9] = M5, average of 3, read-out: avg IC50
[10] = M5, experiment 1, read-out: IC50—1
[11] = M5, experiment 2, read-out: IC50—2
[12] = M5, experiment 3, read-out: IC50—3
[13] = M3, average of 3, read-out: avg IC50
[14] = M3, experiment 1, read-out: IC50—1
[15] = M3, experiment 2, read-out: IC50—2
[16] = M3, experiment 3, read-out: IC50—3

T2 sequence (P20309 whole entry): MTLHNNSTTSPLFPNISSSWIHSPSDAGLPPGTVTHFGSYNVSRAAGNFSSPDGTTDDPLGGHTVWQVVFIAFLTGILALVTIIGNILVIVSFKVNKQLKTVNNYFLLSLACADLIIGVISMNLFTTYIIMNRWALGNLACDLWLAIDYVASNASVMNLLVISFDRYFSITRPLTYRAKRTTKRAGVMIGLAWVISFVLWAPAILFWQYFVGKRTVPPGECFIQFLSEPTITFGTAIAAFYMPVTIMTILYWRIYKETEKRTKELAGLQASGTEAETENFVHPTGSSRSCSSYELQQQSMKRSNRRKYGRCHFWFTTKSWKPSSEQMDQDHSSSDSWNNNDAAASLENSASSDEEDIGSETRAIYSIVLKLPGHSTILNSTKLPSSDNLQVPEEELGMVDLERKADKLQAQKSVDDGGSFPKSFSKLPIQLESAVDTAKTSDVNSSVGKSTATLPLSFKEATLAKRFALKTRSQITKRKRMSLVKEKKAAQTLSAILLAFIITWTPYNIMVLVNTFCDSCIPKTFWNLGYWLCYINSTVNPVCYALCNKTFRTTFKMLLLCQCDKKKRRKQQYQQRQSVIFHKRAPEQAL

CCCCOc1ccc(C(=O)OCC[N+]2(C)CCCCC2)cc1.[I-] [JB-D4, 2-(N-piperidineethyl) p-butoxybenzoate N-methyl iodide]
Ki (M5 muscarinic receptor [1]; M5): 0.827 µM
IC50 (M5 muscarinic receptor [1]; [9]): 6.61 µM
IC50 (M5 muscarinic receptor [1]; [10]): 5.73 µM
IC50 (M5 muscarinic receptor [1]; [11]): 6.76 µM
IC50 (M5 muscarinic receptor [1]; [12]): 7.34 µM
Ki (M3 muscarinic receptor [2]; M3): 4.34 µM
IC50 (M3 muscarinic receptor [2]; [13]): 29.4 µM
IC50 (M3 muscarinic receptor [2]; [14]): 39.5 µM
IC50 (M3 muscarinic receptor [2]; [15]): 20.6 µM
IC50 (M3 muscarinic receptor [2]; [16]): 28.2 µM
IC50 (M1 muscarinic receptor [3]; M1, average of 3, read-out: avg IC50): 14.4 µM
IC50 (M1 muscarinic receptor [3]; M1, experiment 1, read-out: IC50—1): 14.3 µM
IC50 (M1 muscarinic receptor [3]; M1, experiment 2, read-out: IC50—2): 13.8 µM
IC50 (M1 muscarinic receptor [3]; M1, experiment 3, read-out: IC50—3): 15.1 µM
Ki (M1 muscarinic receptor [3]; read-out: KI): 2.88 µM
IC50 (M3 muscarinic receptor [4]; [13]): 16.9 µM
IC50 (M3 muscarinic receptor [4]; [14]): 16.6 µM
IC50 (M3 muscarinic receptor [4]; [15]): 17.2 µM
IC50 (M3 muscarinic receptor [4]; [16]): 16.9 µM
Ki (M3 muscarinic receptor [4]; read-out: KI): 3.16 µM
IC50 (M5 muscarinic receptor [5]; [9]): 12.5 µM
IC50 (M5 muscarinic receptor [5]; [10]): 12.5 µM
IC50 (M5 muscarinic receptor [5]; [11]): 11.2 µM
IC50 (M5 muscarinic receptor [5]; [12]): 13.7 µM
Ki (M5 muscarinic receptor [5]; read-out: KI): 2.88 µM
IC50 (M4 muscarinic receptor; M4, average of 3, read-out: avg IC50): 41.8 µM
IC50 (M4 muscarinic receptor; M4, experiment 1, read-out: IC50—1): 43.4 µM
IC50 (M4 muscarinic receptor; M4, experiment 2, read-out: IC50—2): 42 µM
IC50 (M4 muscarinic receptor; M4, experiment 3, read-out: IC50—3): 40 µM
Ki (M4 muscarinic receptor; read-out: KI): 7.54 µM
Effect of ligands on basal activity (accumulation of inositol phosphates as percent of accumulation in the absence of the ligand) (M3 muscarinic receptor [6]): 102 ± 2%
inhibition of [^3H]NMS binding [7]: fully inhibit
Effect of ligands on basal activity (accumulation of inositol phosphates as percent of accumulation in the absence of the ligand) (M1 muscarinic receptor [8]): 97 ± 2%
